Assay results taken from US8729096B2, “Imidazolidine-2,4-dione derivatives as N-formyl peptide receptor 2 modulators” (Allergan, Inc., priority 2012, dated 2014).

Target: T1, FPR2 (Homo sapiens, UniProt P25090)
T1 construct: expressed in transfected cells
T1 sequence (P25090 1-351): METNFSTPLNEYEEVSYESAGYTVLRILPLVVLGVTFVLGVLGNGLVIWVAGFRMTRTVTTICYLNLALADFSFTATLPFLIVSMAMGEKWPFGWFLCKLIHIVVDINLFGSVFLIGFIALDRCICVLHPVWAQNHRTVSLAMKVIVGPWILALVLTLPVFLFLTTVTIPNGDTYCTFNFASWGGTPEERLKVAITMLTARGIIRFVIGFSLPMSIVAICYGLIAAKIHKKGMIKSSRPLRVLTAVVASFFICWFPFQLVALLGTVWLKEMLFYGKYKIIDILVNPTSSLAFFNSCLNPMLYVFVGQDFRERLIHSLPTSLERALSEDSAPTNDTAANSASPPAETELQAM
Test: FLIPR Tetra compound-induced calcium activity in CHO-Ga16 cells stably expressing FPR2
Type: cell-based
Conditions: calcium activity on FLIPR Tetra; for Efficacy (fraction): efficacy given as a fraction; for EC50: tested at 0.61 to 10,000 nM
Method: CHO-Ga16 cells stably expressing FPR2 were cultured in (F12, 10% FBS, 1% PSA, 400 μg/ml geneticin and 50 μg/ml hygromycin) and HEK-Gqi5 cells stable expressing FPR2 were cultured in (DMEM high glucose, 10% FBS, 1% PSA, 400 μg/ml geneticin and 50 μg/ml hygromycin). In general, the day before the experiment, 18,000 cells/well were placed in a 384-well clear bottom poly-d-lysine coated plate. The following day the screening compound-induced calcium activity was assayed on the FLIPR^Tetra. The drug plates were prepared in 384-well microplates using the EP3 and the MultiPROBE robotic liquid handling systems. Compounds were tested at concentrations ranging from 0.61 to 10,000 nM. Results are expressed as EC50 (nM) and efficacy values.

| Structure (SMILES) | Efficacy (fraction) | EC50 |
| --- | --- | --- |
| O=C(CN1C(=O)C2CCCCN2C1=O)Nc1ccc(Br)cc1 (stereo not shown) [Compound 3, N-(4-bromophenyl)-2-(1,3-dioxohexahydroimidazo[1,5-a]pyridin-2(3H)-yl)acetamide] | (1.0) | 0.243 µM |
| O=C(CN1C(=O)C2CCCN2C1=O)Nc1ccc(Br)cc1 (stereo not shown) [Compound 2, N-(4-bromophenyl)-2-(1,3-dioxotetrahydro-1H-pyrrolo[1,2-c]imidazol-2(3H)-yl)acetamide] | (0.93) | 0.343 µM |

The remaining compounds from weak to strong by EC50, led by results:

| Efficacy (fraction) | EC50 | Structure (SMILES) |
| --- | --- | --- |
| (1.00) | 0.647 µM | O=C(CN1C(=O)NC2(CCC2)C1=O)Nc1ccc(Br)cc1 [Compound 6, N-(4-Bromophenyl)-2-(6,8-dioxo-5,7-diazaspiro[3.4]octan-7-yl)acetamide] |
| (1.00) | 0.306 µM | COCC1(C)NC(=O)N(CC(=O)Nc2ccc(Br)cc2)C1=O (stereo not shown) [Compound 5] |
| (0.99) | 0.056 µM | CCC1(C(C)C)NC(=O)N(CC(=O)Nc2ccc(Br)cc2)C1=O (stereo not shown) [Compound 1, N-(4-bromophenyl)-2-(4-ethyl-4-isopropyl-2,5-dioxoimidazolidin-1-yl)acetamide] |
